The target of one assay is T1, aromatase (Rattus norvegicus, UniProt P22443).
T1 construct: ovarian microsomes are obtained from rats treated with pregnant mares serum gonadotropin; from tissue; host or cells: rat ovary microsomes (rats treated with pregnant mares serum gonadotropin)
T1 sequence (P22443 1-508): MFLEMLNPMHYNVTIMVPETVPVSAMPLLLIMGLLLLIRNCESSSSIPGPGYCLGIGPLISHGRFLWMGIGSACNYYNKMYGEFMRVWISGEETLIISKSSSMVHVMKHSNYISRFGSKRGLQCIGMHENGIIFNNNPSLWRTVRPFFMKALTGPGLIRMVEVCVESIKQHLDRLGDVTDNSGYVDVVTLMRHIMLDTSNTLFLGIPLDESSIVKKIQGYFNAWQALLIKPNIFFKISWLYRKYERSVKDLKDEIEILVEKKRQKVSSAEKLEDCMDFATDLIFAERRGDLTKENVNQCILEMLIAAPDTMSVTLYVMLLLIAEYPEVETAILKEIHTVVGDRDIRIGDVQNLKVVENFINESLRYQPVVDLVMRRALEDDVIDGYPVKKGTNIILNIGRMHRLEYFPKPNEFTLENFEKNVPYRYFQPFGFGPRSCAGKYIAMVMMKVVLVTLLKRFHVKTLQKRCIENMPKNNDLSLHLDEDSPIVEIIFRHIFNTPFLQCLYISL
The experiment in a line: Aromatase inhibition in the rat ovarian microsome assay. Type of assay: biochemical. The following applies: substrate (androstenedione) concentration 0.1 μM; rat ovarian microsomes; read-out: EC50 (concentration of compound required to achieve 50% inhibition of aromatase activity). How it is done: In this test system, ovarian microsomes are obtained from rats treated with pregnant mares serum gonadotropin. Test compounds are added to reaction vials containing 0.1 μM 4-androstene-3,17-dione, 100,000 dpm 1,2[^3 H]-androstenedione, the microsomes and a NADPH generating system. The concentrations of the inhibitors tested ranged between 5 and 10000 nM. […] Potency is determined based on the concentration of inhibitor in nM required to produce a 50% inhibition of enzyme activity (EC50) when the concentration of substrate (androstenedione) is 0.1 μM.

For assay [1], the system named is Estrogen synthesis (aromatization). The experiment in a line: Estrogen Synthesis Inhibition in Rats.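 As to Uterine Wt. %: 100% equals the stimulated control's weight gain over the unstimulated control.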 Type of assay: in vivo, immature female Wistar rats. The following applies: Rattus norvegicus, po, 168 h, gavage; for response vs control in vivo at 3 mg/kg: 3 mg/kg × 7 days; for response vs control in vivo at 30 mg/kg: 30 mg/kg × 7 days. How it is done: By virtue of their ability to inhibit the enzyme aromatase, the compounds of this invention are able to inhibit the synthesis of estrogens in mammals, thereby making the compounds useful in the treatment of estrogen-dependent diseases, such as breast cancer.
Immature female Wistar rats (45-55 grams) were divided into control and test groups of 2-8 animals each. Test compounds were administered for seven days daily by gavage in corn oil. Control animals received corn oil without the test compound. Beginning on the fourth day of the test, all animals treated with the test compound and one half of the control animals were given a subcutaneous injection of 1.0 mg of testosterone propionate in corn oil. The remaining control animals received only an equivalent volume of corn oil. On the seventh day of the test, rats treated with testosterone propionate were injected subcutaneously with 100 μCi of [^3 H]-testosterone in 50 μl of saline-ethanol (3:1).
After two hours, the animals were killed by decapitation. Uteri were isolated, trimmed of extraneous connective tissue, and weighed. […] In the control animals treated with testosterone propionate, estrogens produced by aromatization stimulated the uterus resulting in an increase in weight.
Ovaries from rats treated with [^3 H]-testosterone were excised, cleaned of extraneous tissue, and homogenized in 2.5 ml of a 1.0 mM potassium phosphate buffer containing 3.0 mM MgCl2.6H2 O, 320 mM sucrose, and 0.25% Triton X-100 (polyethylene glycol p-isooctyl phenyl ether, Rohm and Haas) at pH 6.5. The ovarian steroids were extracted with 1.5 ml of 9:1 toluene/ethanol to which had been added 25 to 100 mcg each of unlabelled estradiol, estriol, and estrone, and approximately 1000 dpm of [^14 C]-estradiol. The samples were vortexed, centrifuged at 500×g for 10 minutes, and the organic phase was transferred to a conical vial. Two additional extractions were performed on the residue in the same way. The pooled organic extracts were evaporated for subsequent thin-layer chromatography.
Ovarian proteins were precipitated by the addition of 5.0 ml of ethanol to the remaining aqueous phase. After an overnight incubation at 4° C., the samples were centrifuged at 1500×g for 10 minutes. The supernatant was discarded and the pellet was dissolved in 0.3 N potassium hydroxide. Protein was determined according to the method of Bradford, Analytical Biochemistry, 72, 248 (1976).
The organic residue from each above extraction was redissolved in 9:1 dichloromethane/methanol. The solution of each sample was applied to separate silica gel thin layer chromatography plates which contained a fluorescent indicator. The plates were developed the first dimension with 160:38:1.5:0.5 dichloromethane/ethyl acetate/methanol/acetic acid to within 3 cm of the top of the plate. After air-drying, the plate was developed in the second dimension with 180:19:1 dichloromethane/methanol/ammonium hydroxide. The plate was air-dried and viewed under 254 nm UV light.
The visible spots were marked and the plates were sprayed with primulin (0.001% in 4:1 acetone/water) according to the method of Wright, J. Chromatography, 59, 220 (1971) which allowed for the identification of additional steroids under 365 nm UV light. The spots were scraped from the plate using a glass wool plugged Pasteur pipet attached to a vacuum line. The steroids were eluted directly into scintillation vials by the addition of 0.2 ml of dichloromethane followed by two washes each of 2.0 ml of methanol. The organic solvent was evaporated and 10.0 ml of scintillation fluid (Beckman Ready Solv-NA) was added to the vials. Samples were analyzed by liquid scintillation spectrometry and the corrections were made based on the recoveries of the [^14 C]-steroid.
In Table 2, values for uterine weight are expressed as the respective weights of drug treated (DT), unstimulated corn oil control (UC), and stimulated corn oil control (SC) according to the calculation %=100 (DT-UC)/(SC-UC). […]

[2] abbreviates: 100 (DT-UC)/(SC-UC), read-out: Uterine Wt. %.
The mark [3] stands for this setting: ovaries, percent of testosterone-treated controls, read-out: % steroid concentration, estradiol.
[4] abbreviates: ovaries, percent of testosterone-treated controls, read-out: % steroid concentration, estrone.

Read-outs that look alike come from different tables or passages of the source. Some results are limits rather than exact numbers.

In the case of `Clc1ccc2c(c1)-c1ncncc1C2c1ccccc1` (stereo not drawn) [Example 3, 8-chloro-5-phenyl-5H-indeno[1,2-d]pyrimidine], the EC50 on aromatase is 21 nM. For the molecule `Fc1ccc(C2c3ccc(C(F)(F)F)cc3-c3ncncc32)cc1` (stereo not drawn) [Example 4, 5-(4-fluorophenyl)-8-(trifluoromethyl)-5H-indeno[1,2-d]pyrimidine], in assay [1] (setting [2]), the response vs control in vivo at 3 mg/kg was -14.3% and the response vs control in vivo at 30 mg/kg is -35.5%. Also, the EC50 on aromatase turned out to be 27 nM. As to `Fc1ccc2c(c1)-c1ncncc1C2c1ccc(C(F)(F)F)cc1` (stereo not drawn) [Example 5, 8-fluoro-5-[4-(trifluoromethyl)phenyl]-5H-indeno[1,2-d]pyrimidine], in assay [1] (setting [2]), the response vs control in vivo at 3 mg/kg was found to be 47.3% and the response vs control in vivo at 30 mg/kg worked out at 22.8%. Moreover, on aromatase, the EC50 was determined as 50 nM. As to `c1ccc(C2c3ccccc3-c3ncncc32)cc1` (stereo not drawn) [Example 7, 5-phenyl-5H-indeno[1,2-d]pyrimidine], the EC50 at aromatase stood at 84 nM.

Turning to `Clc1ccc(C2c3ccccc3-c3ncncc32)c(Cl)c1` (stereo not drawn) [Example 8, 5-(2,4-dichlorophenyl)-5H-indeno[1,2-d]pyrimidine], at aromatase, the EC50 was 63 nM. As for `Fc1cccc(C2c3ccccc3-c3ncncc32)c1` (stereo not drawn) [Example 9, 5-(3-fluorophenyl)-5H-indeno[1,2-d]pyrimidine], the EC50 at aromatase was under 50 nM. Take `Clc1ccc(Cl)c(C2c3ccccc3-c3ncncc32)c1` (stereo not drawn) [Example 10, 5-(2,5-dichlorophenyl)-5H-indeno[1,2-d]pyrimidine]: the EC50 at aromatase turned out to be 84 nM. Turning to `Clc1ccc(C2c3ccccc3-c3ncncc32)cc1Cl` (stereo not drawn) [Example 11, 5-(3,4-dichlorophenyl)-5H-indeno[1,2-d]pyrimidine], the EC50 at aromatase is under 50 nM. Regarding `COc1ccc2c(c1)C(c1ccc(Cl)cc1)c1cncnc1-2` (stereo not drawn) [Example 12, 5-(4-chlorophenyl)-7-methoxy-5H-indeno[1,2-d]pyrimidine], the EC50 at aromatase was found to be 128 nM. On to `COc1ccc2c(c1)C(c1ccc(F)cc1)c1cncnc1-2` (stereo not drawn) [Example 13, 5-(4-fluorophenyl)-7-methoxy-5H-indeno[1,2-d]pyrimidine], for which the EC50 on aromatase is 61 nM. `Fc1ccccc1C1c2ccccc2-c2ncncc21` (stereo not drawn) [Example 14, 5-(2-fluorophenyl)-5H-indeno[1,2-d]pyrimidine]: the EC50 on aromatase turned out to be 86 nM. With `Fc1ccc(C2c3ccccc3-c3ncncc32)cc1` (stereo not drawn) [Example 15, 5-(4-fluorophenyl)-5H-indeno[1,2-d]pyrimidine], on aromatase, the EC50 is under 50 nM. As for `COc1ccc2c(c1)-c1ncncc1C2c1cccc(Cl)c1` (stereo not drawn) [Example 16, 5-(3-chlorophenyl)-8-methoxy-5H-indeno[1,2-d]pyrimidine], the EC50 on aromatase was under 50 nM.

On to `Fc1ccc2c(c1)C(c1ccccc1F)c1cncnc1-2` (stereo not drawn) [Example 17, 7-fluoro-5-(2-fluorophenyl)-5H-indeno[1,2-d]pyrimidine], for which the EC50 at aromatase is 750 nM. Take `OC1(c2ccc(Cl)cc2)c2ccc(Cl)cc2-c2ncncc21` (stereo not drawn) [Example 18, 8-chloro-5-(4-chlorophenyl)-5H-indeno[1,2-d]pyrimidin-5-ol]: the response vs control in vivo at 3 mg/kg in assay [1] (setting [2]) is 30.4%; in assay [1] (setting [3]) it was 16.8%; in assay [1] (setting [4]), 89%. Moreover, the response vs control in vivo at 30 mg/kg is -7.7% in assay [1] (setting [2]), 7.5% in assay [1] (setting [3]) and 77% in assay [1] (setting [4]). The EC50 on aromatase came out at 26 nM. On to `OC1(c2ccc(Cl)cc2Cl)c2ccccc2-c2ncncc21` (stereo not drawn) [Example 19], for which the response vs control in vivo at 3 mg/kg came out at 69.6% in assay [1] (setting [2]), 78.3% in assay [1] (setting [3]) and 116% in assay [1] (setting [4]). For the same molecule, the response vs control in vivo at 30 mg/kg is 42.8% in assay [1] (setting [2]), 60% in assay [1] (setting [3]) and 75.4% in assay [1] (setting [4]). Moreover, at aromatase, the EC50 was 255 nM.

In the case of `COc1ccc2c(c1)C(O)(c1ccc(Cl)cc1)c1cncnc1-2` (stereo not drawn) [Example 20, 5-(4-chlorophenyl)-7-methoxy-5H-indeno[1,2-d]pyrimidin-5-ol], the EC50 at aromatase was determined as 420 nM. In the case of `OC1(c2ccc(F)cc2)c2ccccc2-c2ncncc21` (stereo not drawn) [Example 21, 5-(4-fluorophenyl)-5H-indeno[1,2-d]pyrimidin-5-ol], the results for the response vs control in vivo at 3 mg/kg in assay [1] (setting [2]), in assay [1] (setting [3]) and in assay [1] (setting [4]) were 46.4%, 14.5% and 83.8%, respectively. Moreover, the response vs control in vivo at 30 mg/kg is 17.9% in assay [1] (setting [2]), 8.8% in assay [1] (setting [3]) and 71.3% in assay [1] (setting [4]). In addition, at aromatase, the EC50 was under 50 nM. `CC(=O)NC1(c2ccc(Cl)cc2)c2ccc(Cl)cc2-c2ncncc21` (stereo not drawn) [Example 23, N-[8-chloro-5-(4-chlorophenyl)-5H-indeno[1,2-d]pyrimidin-5-yl]acetamide]: the EC50 at aromatase was 265 nM. In the case of `CC(=O)NC1(c2ccc(Cl)cc2Cl)c2ccccc2-c2ncncc21` (stereo not drawn) [Example 25, N-[5-(2,4-dichlorophenyl)-5H-indeno[1,2-d]pyrimidin-5-yl]acetamide], the EC50 on aromatase was 500 nM. Still for that read-out and setting: to `ClC1(c2ccccc2)c2ccccc2-c2ncncc21` (stereo not drawn) [Example 26, 5-chloro-5-phenyl-5H-indeno[1,2-d]pyrimidine] belongs 118 nM; to `Clc1ccc(C2(Cl)c3ccc(Cl)cc3-c3ncncc32)cc1` (stereo not drawn) [Example 27, 5,8-dichloro-5-(4-chlorophenyl)-5H-indeno[1,2-d]pyrimidine], 72 nM.

As for `FC1(c2ccc(Cl)cc2)c2ccc(Cl)cc2-c2ncncc21` (stereo not drawn) [Example 28, 8-chloro-5-(4-chlorophenyl)-5-fluoro-5H-indeno[1,2-d]pyrimidine], the EC50 at aromatase stood at 35 nM.

The values above are taken from patent US4769378A, “Indenopyrimidine aromatase inhibitors” (Eli Lilly and Company, priority 1986, dated 1988).
